According to paper PMC11995724, “Antibiotic target discovery by integrated phenotypic and activity-based profiling of electrophilic fragments” (Cell chemical biology, 2025):

Assay: in vitro
Conditions: human, hek293t cells

Row | Compound | viability at 48 h, 25 µM [%]
1 | N#CC(=Cc1ccccc1)C(=O)Nc1nnn[nH]1 [8-J14, 2-cyano-3-phenyl-N-(1H-1,2,3,4-tetrazol-5-yl)prop-2-enamide] | 111
2 | CCC1SC(=C(C#N)C(N)=O)N(c2ccc(C)cc2)C1=O (centres unmarked) [8-J15, 2-cyano-2-[5-ethyl-3-(4-methylphenyl)-4-oxo-1,3-thiazolidin-2-ylidene]acetamide] | 117
3 | Cc1cc(C=C(C#N)C(=O)NCc2ccco2)cc(C)c1O [8-J16, 2-cyano-N-[(furan-2-yl)methyl]-3-(4-hydroxy-3,5-dimethylphenyl)prop-2-enamide] | 114
4 | Cc1ccc(NC(=O)C(C#N)=Cc2cccc([N+](=O)[O-])c2)cc1 [8-J17, 2-cyano-N-(4-methylphenyl)-3-(3-nitrophenyl)prop-2-enamide] | 88.1
5 | COc1ccc(C=C(C#N)C(=O)NC(C)c2ccccc2)cc1O (centres unmarked) [8-J18, 2-cyano-3-(3-hydroxy-4-methoxyphenyl)-N-(1-phenylethyl)prop-2-enamide] | 93.3
6 | COc1ccc(C=C(C#N)C(=O)Nc2ccccc2OC)cc1O [8-J19, 2-cyano-3-(3-hydroxy-4-methoxyphenyl)-N-(2-methoxyphenyl)prop-2-enamide] | 107
7 | N#CC(=Cc1ccc(OC(F)F)cc1)C(=O)N1CCCCC1 [8-J20, 3-[4-(difluoromethoxy)phenyl]-2-(piperidine-1-carbonyl)prop-2-enenitrile] | 82.8
8 | N#CC(=Cc1cccc(Cl)c1Cl)C(N)=O [8-J21, 2-cyano-3-(2,3-dichlorophenyl)prop-2-enamide] | 121
9 | N#CC(=Cc1cccc(F)c1)C(=O)NCCc1ccccc1 [8-J22, 2-cyano-3-(3-fluorophenyl)-N-(2-phenylethyl)prop-2-enamide] | 103
10 | COc1ccc(C=C(C#N)C(=O)Nc2ccc(Cl)cc2Cl)cc1 [8-K03, 2-cyano-N-(2,4-dichlorophenyl)-3-(4-methoxyphenyl)prop-2-enamide] | 104
11 | COc1cccc(NC(=O)C(C#N)=Cc2csnn2)c1 [8-K04, 2-cyano-N-(3-methoxyphenyl)-3-(1,2,3-thiadiazol-4-yl)prop-2-enamide] | 80.5
12 | N#CC(=Cc1ccc(Sc2ccccc2)o1)C(=O)Nc1ccccc1 [8-K05, 2-cyano-N-phenyl-3-[5-(phenylsulfanyl)furan-2-yl]prop-2-enamide] | 70
13 | N#CC(=Cc1ccc(F)cc1)C(=O)NCCc1cccc(Cl)c1 [8-K06, N-[2-(3-chlorophenyl)ethyl]-2-cyano-3-(4-fluorophenyl)prop-2-enamide] | 49.6
14 | Cc1cccc(C=C(C#N)C(=O)NC2CCCCC2)c1 [8-K07, 2-cyano-N-cyclohexyl-3-(3-methylphenyl)prop-2-enamide] | 45
15 | CCCCNC(=O)C(C#N)=Cc1cc(F)ccc1F [8-K08, N-butyl-2-cyano-3-(2,5-difluorophenyl)prop-2-enamide] | 39.8
16 | N#CC(=Cc1ccccc1)C(=O)Nc1nncs1 [8-K09, 2-cyano-3-phenyl-N-(1,3,4-thiadiazol-2-yl)prop-2-enamide] | 94.2
17 | COc1cc(Cl)c(C)cc1NC(=O)C(C#N)=Cc1c(C)n[nH]c1C [8-K10, N-(4-chloro-2-methoxy-5-methylphenyl)-2-cyano-3-(3,5-dimethyl-1H-pyrazol-4-yl)prop-2-enamide] | 83.6
18 | N#CC(=Cc1cccc2ccccc12)C(=O)Nc1ccccc1Cl [8-K11, N-(2-chlorophenyl)-2-cyano-3-(naphthalen-1-yl)prop-2-enamide] | 80.5
19 | N#CC(=Cc1cccc2c1OCO2)C(=O)Nc1cccc2ccccc12 [8-K12, 3-(1,3-dioxaindan-4-yl)-2-cyano-N-(naphthalen-1-yl)prop-2-enamide] | 63.4
20 | Cc1ccc(NC(=O)C(C#N)=Cc2ccc(C)s2)cc1 [8-K13, 2-cyano-N-(4-methylphenyl)-3-(5-methylthiophen-2-yl)prop-2-enamide] | 77
21 | Cc1cc(C=C(C#N)C(=O)Nc2ccncc2)c(C)n1C1CC1 [8-K14, 2-cyano-3-(1-cyclopropyl-2,5-dimethyl-1H-pyrrol-3-yl)-N-(pyridin-4-yl)prop-2-enamide] | 71.6
22 | Cc1ccccc1NC(=O)C(C#N)=Cc1ccsc1 [8-K15, 2-cyano-N-(2-methylphenyl)-3-(thiophen-3-yl)prop-2-enamide] | 77.5
23 | COc1cc(C=C(C#N)C(=O)Nc2ccc(Cl)cc2)cc(OC)c1 [8-K16, N-(4-chlorophenyl)-2-cyano-3-(3,5-dimethoxyphenyl)prop-2-enamide] | 81.7
24 | CN1C(=O)C(=C(C#N)C(=O)NCc2ccc(Cl)cc2)c2ccccc21 [8-K17, N-[(4-chlorophenyl)methyl]-2-cyano-2-(1-methyl-2-oxo-2,3-dihydro-1H-indol-3-ylidene)acetamide] | 78.3
25 | CC(C)NC(=O)C(C#N)=Cc1ccc(-c2ccccc2F)o1 [8-K18, 2-cyano-3-[5-(2-fluorophenyl)furan-2-yl]-N-(propan-2-yl)prop-2-enamide] | 16

Row | Compound | viability at 48 h, 25 µM [%]
26 | COc1ccc(C=C(C#N)C(=O)NCc2ccccc2)cc1 [8-K19, N-benzyl-2-cyano-3-(4-methoxyphenyl)prop-2-enamide] | 77.3
27 | N#CC(=Cc1ccc(Cl)cc1)C(=O)Nc1ccncc1 [8-K20, 3-(4-chlorophenyl)-2-cyano-N-(pyridin-4-yl)prop-2-enamide] | 61.4
28 | N#CC(=Cc1ccccc1OC(F)F)C(=O)Nc1ccccc1F [8-K21, 2-cyano-3-[2-(difluoromethoxy)phenyl]-N-(2-fluorophenyl)prop-2-enamide] | 82.5
29 | CCc1ccc(NC(=O)C(C#N)=Cc2ccn(-c3ccccc3)n2)cc1 [8-K22, 2-cyano-N-(4-ethylphenyl)-3-(1-phenyl-1H-pyrazol-3-yl)prop-2-enamide] | 36.8
30 | N#CC(C(=O)Nc1ccc2c(c1)OCCO2)=C1N=C(N)c2ccccc21 [8-L03, 2-(3-amino-1H-isoindol-1-ylidene)-2-cyano-N-(2,3-dihydro-1,4-benzodioxin-6-yl)acetamide] | 83.5
31 | N#CC(=Cc1cccc(Cl)c1Cl)C(=O)NCc1ccccc1 [8-L04, N-benzyl-2-cyano-3-(2,3-dichlorophenyl)prop-2-enamide] | 13.2
32 | CC(C)NC(=O)C(C#N)=Cc1ccccc1 [8-L05, 2-cyano-3-phenyl-N-(propan-2-yl)prop-2-enamide] | 104
33 | Cn1cc(C=C(C#N)C(=O)NCc2ccco2)cn1 [8-L06, 2-cyano-N-[(furan-2-yl)methyl]-3-(1-methyl-1H-pyrazol-4-yl)prop-2-enamide] | 89.4
34 | N#CC(=Cc1ccc(F)cc1)C(=O)Nc1ccc(C(=O)O)cc1 [8-L07, 4-[2-cyano-3-(4-fluorophenyl)prop-2-enamido]benzoic acid] | 119
35 | CCCn1c(C)cc(C=C(C#N)C(=O)N2CCC2)c1C [8-L08, 2-(azetidine-1-carbonyl)-3-(2,5-dimethyl-1-propyl-1H-pyrrol-3-yl)prop-2-enenitrile] | 77.4
36 | C=CCNC(=O)C(C#N)=Cc1cccc(C(F)(F)F)c1 [8-L09, 2-cyano-N-(prop-2-en-1-yl)-3-[3-(trifluoromethyl)phenyl]prop-2-enamide] | 96.8
37 | Cn1cc(C=C(C#N)C(=O)NCCc2ccccc2)cn1 [8-L10, 2-cyano-3-(1-methyl-1H-pyrazol-4-yl)-N-(2-phenylethyl)prop-2-enamide] | 101
38 | Cc1ccc(C)c(NC(=O)C(C#N)=Cc2ccc3c(c2)OCCO3)c1 [8-L11, 2-cyano-3-(2,3-dihydro-1,4-benzodioxin-6-yl)-N-(2,5-dimethylphenyl)prop-2-enamide] | 96.2
39 | COCCNC(=O)C(C#N)=Cc1cccc2ccccc12 [8-L12, 2-cyano-N-(2-methoxyethyl)-3-(naphthalen-1-yl)prop-2-enamide] | 91.8
40 | CC(C)NC(=O)C(C#N)=Cc1ccc(C(F)(F)F)cc1 [8-L13, 2-cyano-N-(propan-2-yl)-3-[4-(trifluoromethyl)phenyl]prop-2-enamide] | 37.8
41 | CC(C)(C)c1ccc(C=C(C#N)C(=O)NCc2ccco2)cc1 [8-L14, 3-(4-tert-butylphenyl)-2-cyano-N-[(furan-2-yl)methyl]prop-2-enamide] | 76.1
42 | CCC1SC(=C(C#N)C(=O)NC)N(c2ccc(Cl)cc2)C1=O (centres unmarked) [8-L15, 2-[3-(4-chlorophenyl)-5-ethyl-4-oxo-1,3-thiazolidin-2-ylidene]-2-cyano-N-methylacetamide] | 132
43 | COc1ccc(-c2nn(-c3ccccc3)cc2C=C(C#N)C(N)=O)cc1 [8-L16, 2-cyano-3-[3-(4-methoxyphenyl)-1-phenyl-1H-pyrazol-4-yl]prop-2-enamide] | 109
44 | N#CC(=Cc1cccnc1)C(=O)Nc1cccc2ccccc12 [8-L17, 2-cyano-N-(naphthalen-1-yl)-3-(pyridin-3-yl)prop-2-enamide] | 110
45 | CC(NC(=O)C(C#N)=Cc1cccc(F)c1)c1ccccc1 (centres unmarked) [8-L18, 2-cyano-3-(3-fluorophenyl)-N-(1-phenylethyl)prop-2-enamide] | 34.6
46 | CCCn1c(C)cc(C=C(C#N)C(=O)Nc2cccc(F)c2)c1C [8-L19, 2-cyano-3-(2,5-dimethyl-1-propyl-1H-pyrrol-3-yl)-N-(3-fluorophenyl)prop-2-enamide] | 103
47 | C=CCNC(=O)C(C#N)=Cc1ccc(-c2ccc(F)cc2)o1 [8-L20, 2-cyano-3-[5-(4-fluorophenyl)furan-2-yl]-N-(prop-2-en-1-yl)prop-2-enamide] | 114
48 | N#CC(=Cc1ccc(Cl)cc1)C(N)=O [8-L21, 3-(4-chlorophenyl)-2-cyanoprop-2-enamide] | 112
49 | N#CC(=Cc1ccc(OC(F)F)cc1)C(=O)N1CCCC1 [8-L22, 3-[4-(difluoromethoxy)phenyl]-2-(pyrrolidine-1-carbonyl)prop-2-enenitrile] | 105
50 | COc1ccc(C=C(C#N)C(=O)Nc2cccc(C)c2)cc1 [8-M03, 2-cyano-3-(4-methoxyphenyl)-N-(3-methylphenyl)prop-2-enamide] | 95.7
